Each block holds one compound with its values, some of them ahead of it.
System: 186277-243-T-J2-PDC complex spheroid growth
Assay: Anticancer human tumor 186277-243-T-J2-PDC patient-derived colon adenocarcinoma cell line growth inhibition [AhR]
Details: for IC50: curve of first compound; for viability, T/C: stronger effect = lower value
Method in brief: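 Agents were dosed in half-log steps down from roughly clinical Cmax, or from 10 microM where Cmax was unknown, alone and with AhR antagonists. Read-out: percent test/control growth of tumor spheroids containing HUVEC and MSC stromal cells.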

[1] = second compound 0.1 µM, first compound 0.0316 µM
[2] = second compound 0.1 µM, first compound 0.1 µM
[3] = second compound 0.1 µM, first compound 0.316 µM
[4] = second compound 0.1 µM, first compound 1 µM
[5] = second compound 0.316 µM, first compound 0.0316 µM
[6] = second compound 0.316 µM, first compound 0.1 µM
[7] = second compound 0.316 µM, first compound 0.316 µM
[8] = second compound 0.316 µM, first compound 1 µM
[9] = second compound 1 µM, first compound 0.0316 µM
[10] = second compound 1 µM, first compound 0.1 µM
[11] = second compound 1 µM, first compound 0.316 µM
[12] = second compound 1 µM, first compound 1 µM
[13] = second compound 3.16 µM, first compound 0.0316 µM
[14] = second compound 3.16 µM, first compound 0.1 µM
[15] = second compound 3.16 µM, first compound 0.316 µM
[16] = second compound 3.16 µM, first compound 1 µM
[17] = second compound 10 µM, first compound 0.0316 µM
[18] = second compound 10 µM, first compound 0.1 µM
[19] = second compound 10 µM, first compound 0.316 µM
[20] = second compound 10 µM, first compound 1 µM
[21] = second compound 0.1 µM, first compound 3.16 µM
[22] = second compound 0.1 µM, first compound 10 µM
[23] = second compound 0.316 µM, first compound 3.16 µM
[24] = second compound 0.316 µM, first compound 10 µM
[25] = second compound 1 µM, first compound 3.16 µM
[26] = second compound 1 µM, first compound 10 µM
[27] = second compound 3.16 µM, first compound 3.16 µM
[28] = second compound 3.16 µM, first compound 10 µM
[29] = second compound 10 µM, first compound 3.16 µM
[30] = second compound 10 µM, first compound 10 µM
[31] = second compound 0.1 µM, first compound 0.00949 µM
[32] = second compound 0.1 µM, first compound 0.03 µM
[33] = second compound 0.1 µM, first compound 0.0949 µM
[34] = second compound 0.1 µM, first compound 0.3 µM
[35] = second compound 0.316 µM, first compound 0.00949 µM
[36] = second compound 0.316 µM, first compound 0.03 µM
[37] = second compound 0.316 µM, first compound 0.0949 µM
[38] = second compound 0.316 µM, first compound 0.3 µM
[39] = second compound 1 µM, first compound 0.00949 µM
[40] = second compound 1 µM, first compound 0.03 µM
[41] = second compound 1 µM, first compound 0.0949 µM
[42] = second compound 1 µM, first compound 0.3 µM
[43] = second compound 3.16 µM, first compound 0.00949 µM
[44] = second compound 3.16 µM, first compound 0.03 µM
[45] = second compound 3.16 µM, first compound 0.0949 µM
[46] = second compound 3.16 µM, first compound 0.3 µM
[47] = second compound 10 µM, first compound 0.00949 µM
[48] = second compound 10 µM, first compound 0.03 µM
[49] = second compound 10 µM, first compound 0.0949 µM
[50] = second compound 10 µM, first compound 0.3 µM
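Further: spheroids exposed to compounds for seven days before the viability read.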
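Wherever viability, T/C is given: luminescent signal used as a stand-in for viable cell amount; 100% = DMSO vehicle control wells.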

IC50 (second compound 0.1 µM): 81.8 nM | IC50 (second compound 0.316 µM): 84.5 nM | IC50 (second compound 1 µM): 88.8 nM | IC50 (second compound 3.16 µM): 75.2 nM | IC50 (second compound 10 µM): 63.6 nM
SMILES: CC1COCCN1c1cc(-c2ccnn2C)c2ccnc(-c3ccn[nH]3)c2n1 (stereo not given) + Cc1ccccc1N=Nc1ccc(NC(=O)c2ccnn2C)c(C)c1
viability, T/C (second compound 0.1 µM, first compound 0.00316 µM): 99.9% | viability, T/C (second compound 0.1 µM, first compound 0.01 µM): 105% | viability, T/C [1]: 96.7% | viability, T/C [2]: 40.1% | viability, T/C [3]: 10.2% | viability, T/C [4]: 8.07% | viability, T/C (second compound 0.316 µM, first compound 0.00316 µM): 97.5% | viability, T/C (second compound 0.316 µM, first compound 0.01 µM): 102% | viability, T/C [5]: 93.9% | viability, T/C [6]: 42.4% | viability, T/C [7]: 9.54% | viability, T/C [8]: 7.22% | viability, T/C (second compound 1 µM, first compound 0.00316 µM): 98.8% | viability, T/C (second compound 1 µM, first compound 0.01 µM): 106% | viability, T/C [9]: 100% | viability, T/C [10]: 44.1% | viability, T/C [11]: 9.5% | viability, T/C [12]: 7.1% | viability, T/C (second compound 3.16 µM, first compound 0.00316 µM): 97.7% | viability, T/C (second compound 3.16 µM, first compound 0.01 µM): 104% | viability, T/C [13]: 92.6% | viability, T/C [14]: 35.9% | viability, T/C [15]: 9.1% | viability, T/C [16]: 7.15% | viability, T/C (second compound 10 µM, first compound 0.00316 µM): 77% | viability, T/C (second compound 10 µM, first compound 0.01 µM): 91.9% | viability, T/C [17]: 74.3% | viability, T/C [18]: 33.7% | viability, T/C [19]: 10.4% | viability, T/C [20]: 7.02%

IC50 (second compound 0.1 µM): 2340 nM | IC50 (second compound 0.316 µM): 2350 nM | IC50 (second compound 1 µM): 2180 nM | IC50 (second compound 3.16 µM): 2200 nM | IC50 (second compound 10 µM): 2170 nM
SMILES: CC1COCCN1c1cc(C2(S(C)(=N)=O)CC2)nc(-c2ccnc3[nH]ccc23)n1 (stereo not given) + Cc1ccccc1N=Nc1ccc(NC(=O)c2ccnn2C)c(C)c1
viability, T/C [1]: 105% | viability, T/C [2]: 97.8% | viability, T/C [3]: 81.3% | viability, T/C [4]: 90.8% | viability, T/C [21]: 35.8% | viability, T/C [22]: 11.8% | viability, T/C [5]: 99.1% | viability, T/C [6]: 90.2% | viability, T/C [7]: 98.5% | viability, T/C [8]: 97% | viability, T/C [23]: 33.9% | viability, T/C [24]: 11.3% | viability, T/C [9]: 89.4% | viability, T/C [10]: 105% | viability, T/C [11]: 81.8% | viability, T/C [12]: 84.2% | viability, T/C [25]: 34% | viability, T/C [26]: 9.66% | viability, T/C [13]: 91.2% | viability, T/C [14]: 83.8% | viability, T/C [15]: 87.6% | viability, T/C [16]: 95.1% | viability, T/C [27]: 31.8% | viability, T/C [28]: 9.83% | viability, T/C [17]: 82.1% | viability, T/C [18]: 87.2% | viability, T/C [19]: 87.5% | viability, T/C [20]: 79.7% | viability, T/C [29]: 35.6% | viability, T/C [30]: 10.9%

IC50 (second compound 0.1 µM): > 10000 nM | IC50 (second compound 0.316 µM): > 10000 nM | IC50 (second compound 1 µM): > 10000 nM | IC50 (second compound 3.16 µM): > 10000 nM | IC50 (second compound 10 µM): 9260 nM
SMILES: COc1ccc([C@@H](O)c2cc(-c3ncnc4cc(N5CCOCC5)ccc34)c(F)cc2Cl)nn1 + Cc1ccccc1N=Nc1ccc(NC(=O)c2ccnn2C)c(C)c1
viability, T/C [1]: 100% | viability, T/C [2]: 98% | viability, T/C [3]: 92.9% | viability, T/C [4]: 80.2% | viability, T/C [21]: 89.6% | viability, T/C [22]: 55.8% | viability, T/C [5]: 96.5% | viability, T/C [6]: 104% | viability, T/C [7]: 93.6% | viability, T/C [8]: 80% | viability, T/C [23]: 86.4% | viability, T/C [24]: 52.2% | viability, T/C [9]: 96.5% | viability, T/C [10]: 101% | viability, T/C [11]: 101% | viability, T/C [12]: 98% | viability, T/C [25]: 104% | viability, T/C [26]: 62.7% | viability, T/C [13]: 97.1% | viability, T/C [14]: 89.4% | viability, T/C [15]: 89.7% | viability, T/C [16]: 79.8% | viability, T/C [27]: 76.2% | viability, T/C [28]: 54.2% | viability, T/C [17]: 76.3% | viability, T/C [18]: 81.9% | viability, T/C [19]: 91% | viability, T/C [20]: 80.5% | viability, T/C [29]: 90.9% | viability, T/C [30]: 47.5%

IC50 (second compound 0.1 µM): > 300 nM | IC50 (second compound 0.316 µM): > 300 nM | IC50 (second compound 1 µM): > 300 nM | IC50 (second compound 3.16 µM): > 300 nM | IC50 (second compound 10 µM): > 300 nM
SMILES: Nc1ncn(C2CC(O)C(CO)S2)c(=O)n1 (stereo not given) + Cc1ccccc1N=Nc1ccc(NC(=O)c2ccnn2C)c(C)c1
viability, T/C (second compound 0.1 µM, first compound 0.000949 µM): 97.2% | viability, T/C (second compound 0.1 µM, first compound 0.003 µM): 123% | viability, T/C [31]: 119% | viability, T/C [32]: 104% | viability, T/C [33]: 132% | viability, T/C [34]: 111% | viability, T/C (second compound 0.316 µM, first compound 0.000949 µM): 106% | viability, T/C (second compound 0.316 µM, first compound 0.003 µM): 106% | viability, T/C [35]: 105% | viability, T/C [36]: 109% | viability, T/C [37]: 109% | viability, T/C [38]: 116% | viability, T/C (second compound 1 µM, first compound 0.000949 µM): 103% | viability, T/C (second compound 1 µM, first compound 0.003 µM): 109% | viability, T/C [39]: 100% | viability, T/C [40]: 127% | viability, T/C [41]: 127% | viability, T/C [42]: 108% | viability, T/C (second compound 3.16 µM, first compound 0.000949 µM): 108% | viability, T/C (second compound 3.16 µM, first compound 0.003 µM): 104% | viability, T/C [43]: 107% | viability, T/C [44]: 106% | viability, T/C [45]: 117% | viability, T/C [46]: 120% | viability, T/C (second compound 10 µM, first compound 0.000949 µM): 96.5% | viability, T/C (second compound 10 µM, first compound 0.003 µM): 102% | viability, T/C [47]: 102% | viability, T/C [48]: 99.5% | viability, T/C [49]: 93% | viability, T/C [50]: 90.1%

IC50 (second compound 0.1 µM): 494 nM | IC50 (second compound 0.316 µM): 506 nM | IC50 (second compound 1 µM): 540 nM | IC50 (second compound 3.16 µM): 468 nM | IC50 (second compound 10 µM): 424 nM
SMILES: O=C(C=Cn1cnc(-c2cc(C(F)(F)F)cc(C(F)(F)F)c2)n1)NNc1cnccn1 + Cc1ccccc1N=Nc1ccc(NC(=O)c2ccnn2C)c(C)c1
viability, T/C [31]: 98.7% | viability, T/C [32]: 107% | viability, T/C [33]: 101% | viability, T/C [34]: 75.4% | viability, T/C (second compound 0.1 µM, first compound 0.949 µM): 16.8% | viability, T/C (second compound 0.1 µM, first compound 3 µM): 8.98% | viability, T/C [35]: 94.2% | viability, T/C [36]: 102% | viability, T/C [37]: 108% | viability, T/C [38]: 77.7% | viability, T/C (second compound 0.316 µM, first compound 0.949 µM): 16.9% | viability, T/C (second compound 0.316 µM, first compound 3 µM): 7.87% | viability, T/C [39]: 92.9% | viability, T/C [40]: 106% | viability, T/C [41]: 108% | viability, T/C [42]: 82.6% | viability, T/C (second compound 1 µM, first compound 0.949 µM): 18.7% | viability, T/C (second compound 1 µM, first compound 3 µM): 8.79% | viability, T/C [43]: 96.4% | viability, T/C [44]: 88.4% | viability, T/C [45]: 106% | viability, T/C [46]: 71.7% | viability, T/C (second compound 3.16 µM, first compound 0.949 µM): 16.4% | viability, T/C (second compound 3.16 µM, first compound 3 µM): 10.3% | viability, T/C [47]: 90.2% | viability, T/C [48]: 88% | viability, T/C [49]: 83.7% | viability, T/C [50]: 63% | viability, T/C (second compound 10 µM, first compound 0.949 µM): 20.5% | viability, T/C (second compound 10 µM, first compound 3 µM): 12.7%

— PubChem BioAssay AID1918991 (Molecular Pharmacology Branch, DTP, NCI, 2023)
